Results from ChEMBL document CHEMBL3885881, “DrugMatrix”.

Species on record: Rattus norvegicus
Assay: DrugMatrix - Regimen: Daily Repeat
Type: toxicity, organism-based, Sprague-Dawley
Set-up: regimen Daily Repeat, gender Male, age 6-8 weeks
Details: in vivo, iv, vehicle 100 % SALINE; for ABSOLUTE BASOPHIL / ABSOLUTE EOSINOPHIL / ABSOLUTE LYMPHOCYTE / ABSOLUTE MONOCYTE / ABSOLUTE SEGMENTED NEUTROPHIL / BASOPHIL / EOSINOPHIL / ERYTHROCYTE COUNT / HEMATOCRIT / HEMOGLOBIN / LEUKOCYTE COUNT / LYMPHOCYTE / MEAN CORPUSCULAR HEMOGLOBIN / MEAN CORPUSCULAR HEMOGLOBIN CONCENTRATION / MEAN CORPUSCULAR VOLUME / MONOCYTE / NEUTROPHIL / NUCLEATED RED BLOOD CELLS: tissue Blood; for ALANINE AMINOTRANSFERASE / ALKALINE PHOSPHATASE / ASPARTATE AMINOTRANSFERASE / BLOOD UREA NITROGEN / CARBON DIOXIDE / CHOLESTEROL / CREATINE PHOSPHOKINASE / CREATININE / GLUCOSE / LACTATE DEHYDROGENASE / LIPASE / SODIUM / TOTAL BILIRUBIN / TOTAL PROTEIN / URIC ACID: tissue Plasma
[1] = 0 mg/kg, 72 h, dose level Control, time 3 day
[2] = 0 mg/kg, 120 h, dose level Control, time 5 day
[3] = […], 72 h, dose 0.27 mg/Kg, dose level Low, time 3 day
[4] = […], 72 h, dose 2.7 mg/Kg, dose level High, time 3 day

`COc1cccc2c1C(=O)c1c(O)c3c(c(O)c1C2=O)C[C@@](O)(C(=O)CO)C[C@@H]3O[C@H]1C[C@H](N)[C@@H](O)[C@H](C)O1` [EPIRUBICIN] was tested, and the “ABSOLUTE BASOPHIL” value [1] was 0 CELLS/uL, the “ABSOLUTE EOSINOPHIL” value [1] was 23.17 CELLS/uL and the “ABSOLUTE LYMPHOCYTE” value [1] was 12448.83 CELLS/uL. The “ABSOLUTE MONOCYTE” value [1] was 259.5 CELLS/uL, the “ABSOLUTE SEGMENTED NEUTROPHIL” value [1] was 1635.17 CELLS/uL and the BASOPHIL [1] was 0%. The EOSINOPHIL [1] was 0.17%, the “ERYTHROCYTE COUNT” value [1] was 5.35 x10E6/uL and the HEMATOCRIT [1] was 34.85%. For the same compound, the HEMOGLOBIN [1] was 13.72 G/DL, the “LEUKOCYTE COUNT” value [1] was 14.37 x10E3/uL and the LYMPHOCYTE [1] was 86.5%. The “MEAN CORPUSCULAR HEMOGLOBIN” value [1] was 25.67 pg, the “MEAN CORPUSCULAR HEMOGLOBIN CONCENTRATION” value [1] was 39.38 G/DL and the “MEAN CORPUSCULAR VOLUME” value [1] was 65.2 fL. For the same compound, the MONOCYTE [1] was 1.83%, the NEUTROPHIL [1] was 11.5% and the “NUCLEATED RED BLOOD CELLS” value [1] was 0 /100WBC. The “ALANINE AMINOTRANSFERASE” value [1] was 56.5 u/L, the “ALKALINE PHOSPHATASE” value [1] was 334 u/L and the “ASPARTATE AMINOTRANSFERASE” value [1] was 85.5 u/L. For the same compound, the “BLOOD UREA NITROGEN” value [1] was 16.33 mg/dL, the “CARBON DIOXIDE” value [1] was 26.5 mmol/L and the CHOLESTEROL [1] was 70.33 mg/dL. For the same compound, the “CREATINE PHOSPHOKINASE” value [1] was 339.5 u/L, the CREATININE [1] was 0.18 mg/dL and the GLUCOSE [1] was 155.17 mg/dL. The “LACTATE DEHYDROGENASE” value [1] was 382 u/L, the LIPASE [1] was 9.5 u/L and the SODIUM [1] was 143.87 MEQ/L. For the same compound, the “TOTAL BILIRUBIN” value [1] was 0.2 mg/dL, the “TOTAL PROTEIN” value [1] was 5.98 G/DL and the “URIC ACID” value [1] was 1.53 mg/dL. For the same compound, the “ABSOLUTE BASOPHIL” value [2] was 0 CELLS/uL, the “ABSOLUTE EOSINOPHIL” value [2] was 16.17 CELLS/uL and the “ABSOLUTE LYMPHOCYTE” value [2] was 10653.67 CELLS/uL. The “ABSOLUTE MONOCYTE” value [2] was 17.17 CELLS/uL, the “ABSOLUTE SEGMENTED NEUTROPHIL” value [2] was 746.33 CELLS/uL and the BASOPHIL [2] was 0%. The EOSINOPHIL [2] was 0.17%, the “ERYTHROCYTE COUNT” value [2] was 5.88 x10E6/uL and the HEMATOCRIT [2] was 36.68%. The HEMOGLOBIN [2] was 14.6 G/DL, the “LEUKOCYTE COUNT” value [2] was 11.43 x10E3/uL and the LYMPHOCYTE [2] was 91.83%. For the same compound, the “MEAN CORPUSCULAR HEMOGLOBIN” value [2] was 24.85 pg, the “MEAN CORPUSCULAR HEMOGLOBIN CONCENTRATION” value [2] was 39.8 G/DL and the “MEAN CORPUSCULAR VOLUME” value [2] was 62.47 fL. For the same compound, the MONOCYTE [2] was 0.17%, the NEUTROPHIL [2] was 7.83% and the “NUCLEATED RED BLOOD CELLS” value [2] was 0 /100WBC. The “ALANINE AMINOTRANSFERASE” value [2] was 45.5 u/L, the “ALKALINE PHOSPHATASE” value [2] was 330.17 u/L and the “ASPARTATE AMINOTRANSFERASE” value [2] was 93.33 u/L. The “BLOOD UREA NITROGEN” value [2] was 18 mg/dL, the “CARBON DIOXIDE” value [2] was 25.5 mmol/L and the CHOLESTEROL [2] was 73.5 mg/dL. The “CREATINE PHOSPHOKINASE” value [2] was 434 u/L, the CREATININE [2] was 0.2 mg/dL and the GLUCOSE [2] was 148.83 mg/dL. For the same compound, the “LACTATE DEHYDROGENASE” value [2] was 603.83 u/L, the LIPASE [2] was 10 u/L and the SODIUM [2] was 139.78 MEQ/L. For the same compound, the “TOTAL BILIRUBIN” value [2] was 0.15 mg/dL, the “TOTAL PROTEIN” value [2] was 6.1 G/DL and the “URIC ACID” value [2] was 2.02 mg/dL. For the same compound, the “ABSOLUTE BASOPHIL” value [3] was 0 CELLS/uL, the “ABSOLUTE EOSINOPHIL” value [3] was 28 CELLS/uL and the “ABSOLUTE LYMPHOCYTE” value [3] was 4991.67 CELLS/uL. The “ABSOLUTE MONOCYTE” value [3] was 38 CELLS/uL, the “ABSOLUTE SEGMENTED NEUTROPHIL” value [3] was 375.67 CELLS/uL and the BASOPHIL [3] was 0%. The EOSINOPHIL [3] was 0.67%, the “ERYTHROCYTE COUNT” value [3] was 4.95 x10E6/uL and the HEMATOCRIT [3] was 31.43%. The HEMOGLOBIN [3] was 12.5 G/DL, the “LEUKOCYTE COUNT” value [3] was 5.43 x10E3/uL and the LYMPHOCYTE [3] was 91.67%. For the same compound, the “MEAN CORPUSCULAR HEMOGLOBIN” value [3] was 25.3 pg, the “MEAN CORPUSCULAR HEMOGLOBIN CONCENTRATION” value [3] was 39.8 G/DL and the “MEAN CORPUSCULAR VOLUME” value [3] was 63.57 fL. For the same compound, the MONOCYTE [3] was 0.67%, the NEUTROPHIL [3] was 7% and the “NUCLEATED RED BLOOD CELLS” value [3] was 0 /100WBC. For the same compound, the “ABSOLUTE BASOPHIL” value [4] was 0 CELLS/uL, the “ABSOLUTE EOSINOPHIL” value [4] was 0 CELLS/uL and the “ABSOLUTE LYMPHOCYTE” value [4] was 4049.67 CELLS/uL. For the same compound, the “ABSOLUTE MONOCYTE” value [4] was 29.33 CELLS/uL, the “ABSOLUTE SEGMENTED NEUTROPHIL” value [4] was 387.67 CELLS/uL and the BASOPHIL [4] was 0%. For the same compound, the EOSINOPHIL [4] was 0%, the “ERYTHROCYTE COUNT” value [4] was 5.35 x10E6/uL and the HEMATOCRIT [4] was 33.77%. The HEMOGLOBIN [4] was 13.47 G/DL, the “LEUKOCYTE COUNT” value [4] was 4.47 x10E3/uL and the LYMPHOCYTE [4] was 90.67%. For the same compound, the “MEAN CORPUSCULAR HEMOGLOBIN” value [4] was 25.2 pg, the “MEAN CORPUSCULAR HEMOGLOBIN CONCENTRATION” value [4] was 39.87 G/DL and the “MEAN CORPUSCULAR VOLUME” value [4] was 63.03 fL.
